The source of these data is patent publication US12139492B2 (Endotarget Inc., priority 2021, dated 2024).

Bounds are passed on as bounds.

The test system of one assay is JeKo-1 cells. Kind of assay: Antiproliferative effect, MTS cell viability assay, JeKo-1 cells. Format: cell-based. The following applies: Homo sapiens; JeKo-1 mantle cell lymphoma cells; read-out: IC50 (anti-proliferation) JeKO-1 cells. In a few lines:
(§1)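 Absorbance at 490 nm of formazan, formed by metabolically active cells from MTS tetrazolium, served as the viability measure after a 72 h treatment across a 0.001–10 μM concentration series plus untreated control.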
(Formazan colour is commonly taken as a measure of viable cells.)

The target in another assay is BTK (Homo sapiens, UniProt Q06187). Kind of assay: Degradation of BTK protein in Namalwa cells (Western blot; DC50, Dmax). The following applies: for DC50: BTK degradation, cell line not given. Background: In western blotting, separated proteins are transferred to a membrane and probed.
Sequence of BTK (Q06187 whole entry): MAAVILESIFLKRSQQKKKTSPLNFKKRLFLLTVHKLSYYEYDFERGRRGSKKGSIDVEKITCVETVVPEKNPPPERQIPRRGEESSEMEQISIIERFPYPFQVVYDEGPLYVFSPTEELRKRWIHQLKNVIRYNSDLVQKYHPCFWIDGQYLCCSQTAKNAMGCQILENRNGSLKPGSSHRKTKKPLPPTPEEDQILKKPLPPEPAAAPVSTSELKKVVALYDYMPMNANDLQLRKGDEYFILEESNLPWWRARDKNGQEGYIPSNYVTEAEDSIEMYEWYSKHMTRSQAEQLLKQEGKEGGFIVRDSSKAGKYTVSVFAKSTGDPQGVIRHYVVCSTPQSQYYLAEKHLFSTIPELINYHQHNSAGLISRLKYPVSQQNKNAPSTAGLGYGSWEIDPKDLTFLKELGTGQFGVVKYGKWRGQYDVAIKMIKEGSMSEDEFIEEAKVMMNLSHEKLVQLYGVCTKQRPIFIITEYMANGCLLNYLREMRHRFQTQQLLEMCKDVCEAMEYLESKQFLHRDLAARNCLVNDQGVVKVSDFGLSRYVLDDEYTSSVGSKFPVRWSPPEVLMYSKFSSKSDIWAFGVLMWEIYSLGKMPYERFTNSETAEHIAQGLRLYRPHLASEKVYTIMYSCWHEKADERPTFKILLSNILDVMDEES
The subject of another assay is Mino cells. As to the kind of experiment: Antiproliferative effect, MTS cell viability assay, Mino cells. The conditions noted are these: Homo sapiens, MINO, Mino mantle cell lymphoma cells; read-out: IC50 (anti-proliferation) Mino cells. It is filed as cell-based. The essentials: as §1

As to `NC(=O)c1c(-c2ccc(Oc3ccccc3)cc2)nn2c1NCC[C@H]2C1CCN(C(=O)N2CCN(CC3CCN(c4ccc5c(c4)CN(C4CCC(=O)NC4=O)C5=O)CC3)CC2)CC1` (stereo partly drawn) [Compound 290, (7S)-7-(1-(4-((1-(2-(2,6-dioxopiperidin-3-yl)-1-oxoisoindolin 5-yl)piperidin-4-yl)methyl)piperazine-1-carbonyl)piperidin-4-yl)-2-(4-phenoxyphenyl)-4,5,6,7-tetrahydropyrazolo[1,5-a]pyrimidine-3-carboxamide], the IC50 in the assay on JeKo-1 cells was less than 1000 nM; with Mino cells it was 1000 to 10000 nM. Also, the Dmax – broadly, the greatest extent of degradation seen – at BTK was more than 90%. In addition, at BTK, the DC50 (commonly the midpoint of the concentration-degradation curve) is less than 10 nM.
The matching figures for `NC(=O)c1c(-c2ccc(Oc3ccccc3)cc2)nn2c1NCC[C@H]2C1CCN(C(=O)N2CCC(CN3CCN(c4ccc5c(c4)C(=O)N(C4CCC(=O)NC4=O)C5=O)CC3)CC2)CC1` (stereo partly drawn) [Compound 291, (7S)-7-(1-(4-((4-(2-(2,6-dioxopiperidin-3-yl)-1,3-dioxoisoindolin-5-yl)piperazin-1-yl)methyl)piperidine-1-carbonyl)piperidin-4-yl)-2-(4-phenoxyphenyl)-4,5,6,7-tetrahydropyrazolo[1,5-a]pyrimidine-3-carboxamide]: less than 1000 nM, less than 1000 nM, more than 90% and 10 to 50 nM.
The matching figures for `NC(=O)c1c(-c2ccc(Oc3ccccc3)cc2)nn2c1NCC[C@H]2C1CCN(C(=O)N2CCC(CN3CCN(c4ccc5c(c4)CN(C4CCC(=O)NC4=O)C5=O)CC3)CC2)CC1` (stereo partly drawn) [Compound 292, (7S)-7-(1-(4-((4-(2-(2,6-dioxopiperidin-3-yl)-1-oxoisoindolin-5-yl)piperazin-1-yl)methyl)piperidine-1-carbonyl)piperidin-4-yl)-2-(4-phenoxyphenyl)-4,5,6,7-tetrahydropyrazolo[1,5-a]pyrimidine-3-carboxamide]: less than 1000 nM, less than 1000 nM, more than 90% and less than 10 nM.
The matching figures for `NC(=O)c1c(-c2ccc(Oc3ccccc3)cc2)nn2c1NCC[C@H]2C1CCN(C(=O)N2CCC(CC3CCN(c4ccc5c(c4)C(=O)N(C4CCC(=O)NC4=O)C5=O)CC3)CC2)CC1` (stereo partly drawn) [Compound 293, (7S)-7-(1-(4-((1-(2-(2,6-dioxopiperidin-3-yl)-1,3-dioxoisoindolin-5-yl)piperidin-4-yl)methyl)piperidine-1-carbonyl)piperidin-4-yl)-2-(4-phenoxyphenyl)-4,5,6,7-tetrahydropyrazolo[1,5-a]pyrimidine-3-carboxamide]: 1000 to 10000 nM, less than 1000 nM, more than 90% and 10 to 50 nM.
For the molecule `NC(=O)c1c(-c2ccc(Oc3ccccc3)cc2)nn2c1NCC[C@H]2C1CCN(C(=O)N2CCC(CC3CCN(c4ccc5c(c4)CN(C4CCC(=O)NC4=O)C5=O)CC3)CC2)CC1` (stereo partly drawn) [Compound 294, (7S)-7-(1-(4-((1-(2-(2,6-dioxopiperidin-3-yl)-1-oxoisoindolin-5-yl)piperidin-4-yl)methyl)piperidine-1-carbonyl)piperidin-4-yl)-2-(4-phenoxyphenyl)-4,5,6,7-tetrahydropyrazolo[1,5-a]pyrimidine-3-carboxamide], the IC50 in the assay with JeKo-1 cells fell in the range of 1000 to 10000 nM. On BTK, this molecule yielded a Dmax of more than 90% and a DC50 of 10 to 50 nM. Further, the IC50 in the assay with Mino cells was less than 1000 nM.
The matching figures for `NC(=O)c1c(-c2ccc(Oc3ccccc3)cc2)nn2c1NCC[C@H]2C1CCN(C(=O)N2CCC(CN3CCC(c4ccc5c(c4)C(=O)N(C4CCC(=O)NC4=O)C5=O)CC3)CC2)CC1` (stereo partly drawn) [Compound 295, (7S)-7-(1-(4-((4-(2-(2,6-dioxopiperidin-3-yl)-1,3-dioxoisoindolin-5-yl)piperidin-1-yl)methyl)piperidine-1-carbonyl)piperidin-4-yl)-2-(4-phenoxyphenyl)-4,5,6,7-tetrahydropyrazolo[1,5-a]pyrimidine-3-carboxamide]: 1000 to 10000 nM, more than 90%, 10 to 50 nM and less than 1000 nM.
The matching figures for `NC(=O)c1c(-c2ccc(Oc3ccccc3)cc2)nn2c1NCC[C@H]2C1CCN(C(=O)N2CCC(CN3CCC(c4ccc5c(c4)CN(C4CCC(=O)NC4=O)C5=O)CC3)CC2)CC1` (stereo partly drawn) [Compound 296, (7S)-7-(1-(4-((4-(2-(2,6-dioxopiperidin-3-yl)-1-oxoisoindolin-5-yl)piperidin-1-yl)methyl)piperidine-1-carbonyl)piperidin-4-yl)-2-(4-phenoxyphenyl)-4,5,6,7-tetrahydropyrazolo[1,5-a]pyrimidine-3-carboxamide]: 1000 to 10000 nM, more than 90%, less than 10 nM and less than 1000 nM.
The like results for `NC(=O)c1c(-c2ccc(Oc3ccccc3)cc2)nn2c1NCC[C@H]2C1CCN(C(=O)N2CCN(CCN3CCN(c4ccc5c(c4)C(=O)N(C4CCC(=O)NC4=O)C5=O)CC3)CC2)CC1` (stereo partly drawn) [Compound 297, (7S)-7-(1-(4-(2-(4-(2-(2,6-dioxopiperidin-3-yl)-1,3-dioxoisoindolin-5-yl)piperazin-1-yl)ethyl)piperazine-1-carbonyl)piperidin-4-yl)-2-(4-phenoxyphenyl)-4,5,6,7-tetrahydropyrazolo[1,5-a]pyrimidine-3-carboxamide] were, in that order, 1000 to 10000 nM, more than 90%, 10 to 50 nM and 1000 to 10000 nM.
As to `NC(=O)c1c(-c2ccc(Oc3ccccc3)cc2)nn2c1NCC[C@H]2C1CCN(C(=O)N2CCN(CCN3CCN(c4ccc5c(c4)CN(C4CCC(=O)NC4=O)C5=O)CC3)CC2)CC1` (stereo partly drawn) [Compound 298, (7S)-7-(1-(4-(2-(4-(2-(2,6-dioxopiperidin-3-yl)-1-oxoisoindolin-5-yl)piperazin-1-yl)ethyl)piperazine-1-carbonyl)piperidin-4-yl)-2-(4-phenoxyphenyl)-4,5,6,7-tetrahydropyrazolo[1,5-a]pyrimidine-3-carboxamide], the IC50 with JeKo-1 cells was 1000 to 10000 nM. On BTK, this molecule yielded a Dmax of more than 90% and a 50% degradation concentration (DC50) of 10 to 50 nM. The IC50 in the assay on Mino cells lay within 1000 to 10000 nM.
As to `NC(=O)c1c(-c2ccc(Oc3ccccc3)cc2)nn2c1NCC[C@H]2C1CCN(C(=O)N2CCN(CCC3CCN(c4ccc5c(c4)C(=O)N(C4CCC(=O)NC4=O)C5=O)CC3)CC2)CC1` (stereo partly drawn) [Compound 299, (7S)-7-(1-(4-(2-(1-(2-(2,6-dioxopiperidin-3-yl)-1,3-dioxoisoindolin-5-yl)piperidin-4-yl)ethyl)piperazine-1-carbonyl)piperidin-4-yl)-2-(4-phenoxyphenyl)-4,5,6,7-tetrahydropyrazolo[1,5-a]pyrimidine-3-carboxamide], the IC50 in the assay on JeKo-1 cells and in the assay with Mino cells was 1000 to 10000 nM each time. For the same molecule, the Dmax on BTK was more than 75%. Also, the DC50 on BTK lay in the range of 10 to 50 nM.
In the case of `NC(=O)c1c(-c2ccc(Oc3ccccc3)cc2)nn2c1NCC[C@H]2C1CCN(C(=O)N2CCN(CCC3CCN(c4ccc5c(c4)CN(C4CCC(=O)NC4=O)C5=O)CC3)CC2)CC1` (stereo partly drawn) [Compound 300, (7S)-7-(1-(4-(2-(1-(2-(2,6-dioxopiperidin-3-yl)-1-oxoisoindolin-5-yl)piperidin-4-yl)ethyl)piperazine-1-carbonyl)piperidin-4-yl)-2-(4-phenoxyphenyl)-4,5,6,7-tetrahydropyrazolo[1,5-a]pyrimidine-3-carboxamide], the IC50 in the assay with JeKo-1 cells was in the range of 1000 to 10000 nM. In addition, on BTK, the Dmax is more than 75% and the DC50 was in the range of 10 to 50 nM. In addition, the IC50 with Mino cells was 1000 to 10000 nM.
Take `NC(=O)c1c(-c2ccc(Oc3ccccc3)cc2)nn2c1NCC[C@H]2C1CCN(C(=O)N2CCC(CCN3CCC(c4ccc5c(c4)C(=O)N(C4CCC(=O)NC4=O)C5=O)CC3)CC2)CC1` (stereo partly drawn) [Compound 301, (7S)-7-(1-(4-(2-(4-(2-(2,6-dioxopiperidin-3-yl)-1,3-dioxoisoindolin-5-yl)piperidin-1-yl)ethyl)piperidine-1-carbonyl)piperidin-4-yl)-2-(4-phenoxyphenyl)-4,5,6,7-tetrahydropyrazolo[1,5-a]pyrimidine-3-carboxamide]: the IC50 with JeKo-1 cells and with Mino cells was 1000 to 10000 nM throughout. On BTK, this molecule had a Dmax of more than 75%. Also, on BTK, the DC50 fell in the range of 10 to 50 nM.
On to `NC(=O)c1c(-c2ccc(Oc3ccccc3)cc2)nn2c1NCC[C@H]2C1CCN(C(=O)N2CCC(CCN3CCC(c4ccc5c(c4)CN(C4CCC(=O)NC4=O)C5=O)CC3)CC2)CC1` (stereo partly drawn) [Compound 302, (7S)-7-(1-(4-(2-(4-(2-(2,6-dioxopiperidin-3-yl)-1-oxoisoindolin-5-yl)piperidin-1-yl)ethyl)piperidine-1-carbonyl)piperidin-4-yl)-2-(4-phenoxyphenyl)-4,5,6,7-tetrahydropyrazolo[1,5-a]pyrimidine-3-carboxamide], for which the IC50 in the assay on JeKo-1 cells and in the assay on Mino cells was 1000 to 10000 nM in each case. For the same molecule, the Dmax at BTK is more than 75%. Further, the DC50 on BTK lay within 10 to 50 nM.
`NC(=O)c1c(-c2ccc(Oc3ccccc3)cc2)nn2c1NCC[C@H]2C1CCN(C(=O)N2CCN(CCN3CCC(c4ccc5c(c4)C(=O)N(C4CCC(=O)NC4=O)C5=O)CC3)CC2)CC1` (stereo partly drawn) [Compound 303, (7S)-7-(1-(4-(2-(4-(2-(2,6-dioxopiperidin-3-yl)-1,3-dioxoisoindolin-5-yl)piperidin-1-yl)ethyl)piperazine-1-carbonyl)piperidin-4-yl)-2-(4-phenoxyphenyl)-4,5,6,7-tetrahydropyrazolo[1,5-a]pyrimidine-3-carboxamide]: in the assay on JeKo-1 cells, the IC50 lay within 1000 to 10000 nM. At BTK, this molecule had a Dmax of more than 75% and a 50% degradation concentration (DC50) of 10 to 50 nM. Further, the IC50 in the assay on Mino cells is 1000 to 10000 nM.
